# PubChem BioAssay (NCI)
#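 Briefly, cells in 96-well plates were exposed to five compound concentrations for 48 h, and endpoints were estimated by linear interpolation. GI50 marks 50% less growth. TGI: concentration producing complete growth inhibition.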
# How the values were obtained:
# Experiment in all cases: growth of human tumour cells (NCI), 48 h
# 786-0 renal = tested on: 786-0 renal
# A498 renal = tested on: A498 renal
# A549 NSCLC = tested on: A549 NSCLC
# ACHN renal = tested on: ACHN renal
# BT-549 breast = tested on: BT-549 breast
# CAKI-1 renal = tested on: CAKI-1 renal
# CCRF-CEM leukemia = tested on: CCRF-CEM leukemia
# COLO 205 colon = tested on: COLO 205 colon
# DU-145 prostate = tested on: DU-145 prostate
# EKVX NSCLC = tested on: EKVX NSCLC
# HCC-2998 colon = tested on: HCC-2998 colon
# HCT-116 colon = tested on: HCT-116 colon
# HCT-15 colon = tested on: HCT-15 colon
# HL-60(TB) leukemia = tested on: HL-60(TB) leukemia
# HOP-62 NSCLC = tested on: HOP-62 NSCLC
# HOP-92 NSCLC = tested on: HOP-92 NSCLC
# HS 578T breast = tested on: HS 578T breast
# HT29 colon = tested on: HT29 colon
# IGROV1 ovarian = tested on: IGROV1 ovarian
# K-562 leukemia = tested on: K-562 leukemia
# KM12 colon = tested on: KM12 colon
# LOX IMVI melanoma = tested on: LOX IMVI melanoma
# M14 melanoma = tested on: M14 melanoma
# MALME-3M melanoma = tested on: MALME-3M melanoma
# MCF7 breast = tested on: MCF7 breast
# MDA-MB-231 breast = tested on: MDA-MB-231 breast
# MDA-MB-435 = tested on: MDA-MB-435
# MDA-N = tested on: MDA-N
# MOLT-4 leukemia = tested on: MOLT-4 leukemia
# NCI-H226 lung = tested on: NCI-H226 lung
# NCI-H23 lung = tested on: NCI-H23 lung
# NCI-H460 lung = tested on: NCI-H460 lung
# NCI-H522 lung = tested on: NCI-H522 lung
# NCI/ADR-RES ovarian = tested on: NCI/ADR-RES ovarian
# OVCAR-3 ovarian = tested on: OVCAR-3 ovarian
# OVCAR-4 ovarian = tested on: OVCAR-4 ovarian
# OVCAR-5 ovarian = tested on: OVCAR-5 ovarian
# OVCAR-8 ovarian = tested on: OVCAR-8 ovarian
# PC-3 prostate = tested on: PC-3 prostate
# RPMI-8226 leukemia = tested on: RPMI-8226 leukemia
# RXF 393 renal = tested on: RXF 393 renal
# SF-268 CNS = tested on: SF-268 CNS
# SF-295 CNS = tested on: SF-295 CNS
# SF-539 CNS = tested on: SF-539 CNS
# SK-MEL-2 melanoma = tested on: SK-MEL-2 melanoma
# SK-MEL-28 melanoma = tested on: SK-MEL-28 melanoma
# SK-MEL-5 melanoma = tested on: SK-MEL-5 melanoma
# SK-OV-3 ovarian = tested on: SK-OV-3 ovarian
# SN12C renal = tested on: SN12C renal
# SNB-19 CNS = tested on: SNB-19 CNS
# SNB-75 CNS = tested on: SNB-75 CNS
# SW-620 colon = tested on: SW-620 colon
# T-47D breast = tested on: T-47D breast
# TK-10 renal = tested on: TK-10 renal
# U251 CNS = tested on: U251 CNS
# UACC-257 melanoma = tested on: UACC-257 melanoma
# UACC-62 melanoma = tested on: UACC-62 melanoma
# UO-31 renal = tested on: UO-31 renal
structure (smiles),measurement,setting,value
CCOC(=O)/C=C(\C(=O)OCC)n1cc(Cl)c(=O)n(CC(=O)OCC)c1=O,TGI,786-0 renal,3.14 µM
same,TGI,A498 renal,34.9 µM
same,TGI,A549 NSCLC,45.8 µM
same,TGI,ACHN renal,3.02 µM
same,TGI,BT-549 breast,35.5 µM
same,TGI,CAKI-1 renal,5.27 µM
same,GI50,CCRF-CEM leukemia,16.5 µM
same,TGI,CCRF-CEM leukemia,36.1 µM
same,TGI,COLO 205 colon,1.86 µM
same,TGI,DU-145 prostate,31.1 µM
same,TGI,EKVX NSCLC,30.9 µM
same,TGI,HCC-2998 colon,37.5 µM
same,TGI,HCT-116 colon,4.94 µM
same,TGI,HCT-15 colon,13.4 µM
same,TGI,HL-60(TB) leukemia,7.39 µM
same,TGI,HOP-62 NSCLC,33.7 µM
same,TGI,HOP-92 NSCLC,5.28 µM
same,TGI,HS 578T breast,> 100 µM
same,TGI,HT29 colon,38.3 µM
same,TGI,IGROV1 ovarian,25.9 µM
same,TGI,K-562 leukemia,4.23 µM
same,TGI,KM12 colon,34.9 µM
same,TGI,LOX IMVI melanoma,11.2 µM
same,TGI,M14 melanoma,10.2 µM
same,TGI,MALME-3M melanoma,3.85 µM
same,TGI,MCF7 breast,8.07 µM
same,TGI,MDA-MB-231 breast,30.3 µM
same,TGI,MDA-MB-435,35.5 µM
same,TGI,MDA-N,24 µM
same,TGI,MOLT-4 leukemia,6.05 µM
same,TGI,NCI-H226 lung,31.7 µM
same,TGI,NCI-H23 lung,42.6 µM
same,TGI,NCI-H460 lung,51.1 µM
same,TGI,NCI-H522 lung,1.85 µM
same,TGI,NCI/ADR-RES ovarian,> 93.8 µM
same,TGI,OVCAR-3 ovarian,8.69 µM
same,TGI,OVCAR-4 ovarian,41.2 µM
same,TGI,OVCAR-5 ovarian,33.3 µM
same,TGI,OVCAR-8 ovarian,8.59 µM
same,TGI,PC-3 prostate,27.8 µM
same,TGI,RPMI-8226 leukemia,4.58 µM
same,TGI,RXF 393 renal,3.77 µM
same,TGI,SF-268 CNS,32.7 µM
same,TGI,SF-295 CNS,> 61.1 µM
same,TGI,SF-539 CNS,28.5 µM
same,TGI,SK-MEL-2 melanoma,32 µM
same,TGI,SK-MEL-28 melanoma,36.5 µM
same,TGI,SK-MEL-5 melanoma,29.1 µM
same,TGI,SK-OV-3 ovarian,33.9 µM
same,TGI,SN12C renal,28.8 µM
same,TGI,SNB-19 CNS,39 µM
same,TGI,SNB-75 CNS,35.9 µM
same,TGI,SW-620 colon,4.54 µM
same,TGI,T-47D breast,4.12 µM
same,TGI,TK-10 renal,3.6 µM
same,TGI,U251 CNS,29.6 µM
same,TGI,UACC-257 melanoma,10.2 µM
same,TGI,UACC-62 melanoma,24.6 µM
same,TGI,UO-31 renal,3.27 µM
CCCCCCCCP(=O)(O)OP(=O)(O)OCC1OC(n2ccc(N)nc2=O)C(O)C1O (stereo unspecified),TGI,786-0 renal,> 100 µM
same,TGI,A498 renal,> 100 µM
same,TGI,A549 NSCLC,> 100 µM
same,TGI,ACHN renal,> 100 µM
same,TGI,BT-549 breast,> 100 µM
same,TGI,CAKI-1 renal,> 100 µM
same,TGI,CCRF-CEM leukemia,> 100 µM
same,TGI,COLO 205 colon,> 100 µM
same,TGI,EKVX NSCLC,> 100 µM
same,TGI,HCC-2998 colon,> 100 µM
same,TGI,HCT-116 colon,> 100 µM
same,TGI,HCT-15 colon,> 100 µM
same,TGI,HL-60(TB) leukemia,> 100 µM
same,TGI,HOP-62 NSCLC,> 100 µM
same,TGI,HOP-92 NSCLC,> 100 µM
same,TGI,HS 578T breast,> 100 µM
same,TGI,HT29 colon,> 100 µM
same,TGI,IGROV1 ovarian,> 100 µM
same,TGI,K-562 leukemia,> 100 µM
same,TGI,KM12 colon,> 100 µM
same,TGI,LOX IMVI melanoma,> 100 µM
same,TGI,M14 melanoma,> 100 µM
same,TGI,MALME-3M melanoma,> 100 µM
same,TGI,MCF7 breast,> 100 µM
same,TGI,MDA-MB-231 breast,> 100 µM
same,TGI,MDA-MB-435,> 100 µM
same,TGI,MDA-N,> 100 µM
same,TGI,MOLT-4 leukemia,> 100 µM
same,TGI,NCI-H226 lung,> 100 µM
same,TGI,NCI-H23 lung,> 100 µM
same,TGI,NCI-H460 lung,> 100 µM
same,TGI,NCI-H522 lung,> 100 µM
same,TGI,NCI/ADR-RES ovarian,> 100 µM
same,TGI,OVCAR-3 ovarian,> 100 µM
same,TGI,OVCAR-4 ovarian,> 100 µM
same,TGI,OVCAR-5 ovarian,> 100 µM
same,TGI,OVCAR-8 ovarian,> 100 µM
same,TGI,PC-3 prostate,> 100 µM
same,TGI,RPMI-8226 leukemia,> 100 µM
same,TGI,RXF 393 renal,> 100 µM
same,TGI,SF-268 CNS,> 100 µM
same,TGI,SF-295 CNS,> 100 µM
same,TGI,SF-539 CNS,> 100 µM
same,TGI,SK-MEL-2 melanoma,> 100 µM
same,TGI,SK-MEL-28 melanoma,> 100 µM
same,TGI,SK-MEL-5 melanoma,> 100 µM
same,TGI,SK-OV-3 ovarian,> 100 µM
same,TGI,SN12C renal,> 100 µM
same,TGI,SNB-19 CNS,> 100 µM
same,TGI,SNB-75 CNS,> 100 µM
same,TGI,SW-620 colon,> 100 µM
same,TGI,T-47D breast,> 100 µM
same,TGI,TK-10 renal,> 100 µM
same,TGI,U251 CNS,> 100 µM
same,TGI,UACC-257 melanoma,> 100 µM
same,TGI,UACC-62 melanoma,> 100 µM
same,TGI,UO-31 renal,> 100 µM
CCCCSC1=N/C(=C\c2ccc(N(C)C)cc2)C(=O)N1,TGI,786-0 renal,42.9 µM
same,TGI,A498 renal,40.4 µM
same,TGI,A549 NSCLC,75.2 µM
same,TGI,ACHN renal,> 100 µM
same,TGI,BT-549 breast,> 100 µM
same,TGI,CAKI-1 renal,> 100 µM
same,TGI,CCRF-CEM leukemia,> 100 µM
same,TGI,COLO 205 colon,> 100 µM
same,TGI,DU-145 prostate,> 100 µM
same,TGI,EKVX NSCLC,76.5 µM
same,TGI,HCT-116 colon,74.9 µM
same,TGI,HCT-15 colon,> 100 µM
same,TGI,HL-60(TB) leukemia,> 100 µM
same,TGI,HOP-62 NSCLC,> 100 µM
same,TGI,HOP-92 NSCLC,96.2 µM
same,TGI,HS 578T breast,92.1 µM
same,TGI,HT29 colon,36.8 µM
same,TGI,IGROV1 ovarian,> 100 µM
same,TGI,K-562 leukemia,> 100 µM
same,TGI,KM12 colon,> 100 µM
same,TGI,LOX IMVI melanoma,> 100 µM
same,TGI,M14 melanoma,> 100 µM
same,TGI,MALME-3M melanoma,> 100 µM
same,TGI,MCF7 breast,> 100 µM
same,TGI,MDA-MB-231 breast,75.8 µM
same,TGI,MDA-MB-435,> 100 µM
same,TGI,MDA-N,> 100 µM
same,TGI,MOLT-4 leukemia,> 100 µM
same,TGI,NCI-H226 lung,54.2 µM
same,TGI,NCI-H23 lung,> 100 µM
same,TGI,NCI-H460 lung,51.6 µM
same,TGI,NCI-H522 lung,73.9 µM
same,TGI,NCI/ADR-RES ovarian,> 100 µM
same,TGI,OVCAR-3 ovarian,73.1 µM
same,TGI,OVCAR-4 ovarian,> 100 µM
same,TGI,OVCAR-5 ovarian,> 100 µM
same,TGI,OVCAR-8 ovarian,> 100 µM
same,TGI,PC-3 prostate,19.3 µM
same,TGI,RPMI-8226 leukemia,50.2 µM
same,TGI,RXF 393 renal,> 100 µM
same,TGI,SF-268 CNS,> 100 µM
same,TGI,SF-295 CNS,> 100 µM
same,TGI,SF-539 CNS,63.9 µM
same,TGI,SK-MEL-28 melanoma,> 100 µM
same,TGI,SK-MEL-5 melanoma,> 100 µM
same,TGI,SK-OV-3 ovarian,> 100 µM
same,TGI,SN12C renal,33.5 µM
same,TGI,SNB-19 CNS,> 100 µM
same,TGI,SNB-75 CNS,> 100 µM
same,TGI,SW-620 colon,> 100 µM
same,TGI,T-47D breast,81.8 µM
same,TGI,TK-10 renal,> 100 µM
same,TGI,U251 CNS,48.2 µM
same,TGI,UACC-257 melanoma,56.7 µM
same,TGI,UACC-62 melanoma,81.3 µM
